Assay results as given in patent publication US20220192955A1, “AZOXYSTROBIN EFFICACY IN SCALP HEALTH” (The Procter & Gamble Company, priority 2020, published 2022).
Marks after values point to notes of the source that are not given here.

Legend:
[1] = tested on: keratin 1, keratin 10; test: Scalp tape strip barrier integrity: keratins 1 and 10; assay type: in vivo, human
Protocol: (§1) Subjects are enrolled in a double-blind, randomized study for all test groups and have Baseline and Week 3 measurements of scalp health taken for flaking, itch and scalp health endpoints. Subjects take home a test product(s) and are instructed on use of test products throughout the study. Test products are solubilized in a hydroalcoholic leave-on formulation. Azoxystrobin raw material is sourced from AK Scientific Inc. (Union City, Calif.) as >97% pure. Azoxystrobin scalp treatment is prepared from a slurry of azoxystrobin in ethanol that is formulated to 0.1% (w/v) in a base chassis of 50% ethanol, 0.35% Ultrez 21 (rheology modifier), 0.05% neutrol TE and water (q.s.). […] Biomarkers of scalp health, including biomarkers of inflammation, itch, oxidative stress and barrier integrity are assessed by non-invasive tape strip sampling of the scalp surface to determine therapeutic resolution. All biomarkers are analyzed from D-Squame® scalp tape samples that are collected from the scalp of subjects before and after scalp treatment with either azoxystrobin or vehicle (Baseline, and Week 3 respectively). These are extracted and analyzed according to published methods (International Journal of Dermatology 2011, 50, 102-113, incorporated by reference herein). […] Biochemical markers of skin/scalp barrier integrity are analyzed to evaluate improvements on barrier health. […]

[2] = tested on: Myeloperoxidase; test: Scalp tape strip myeloperoxidase protein; assay type: in vivo, human
Protocol: as §1, with “Myeloperoxidase protein is” for “Biochemical markers of skin/scalp barrier integrity are”, “determine the impact of scalp treatment oxidative stress and potential oxidative damage.” for “evaluate improvements on barrier health.”

[3] = tested on: human scalp (dandruff); test: In vivo scalp health study: adherent scalp flaking score (ASFS)
Protocol: Subjects are enrolled in a double-blind, randomized study for all test groups and have Baseline and Week 3 measurements of scalp health taken for flaking, itch and scalp health endpoints. Subjects take home a test product(s) and are instructed on use of test products throughout the study. Test products are solubilized in a hydroalcoholic leave-on formulation. Azoxystrobin raw material is sourced from AK Scientific Inc. (Union City, Calif.) as >97% pure. Azoxystrobin scalp treatment is prepared from a slurry of azoxystrobin in ethanol that is formulated to 0.1% (w/v) in a base chassis of 50% ethanol, 0.35% Ultrez 21 (rheology modifier), 0.05% neutrol TE and water (q.s.). Vehicle scalp treatment is prepared similarly without the addition of azoxystrobin raw material. Subjects apply either azoxystrobin or vehicle scalp treatments daily for 3 weeks. Grading of the scalp is performed by qualified expert graders for adherent scalp flaking scores (ASFS) as described in published methods. Detailed methods can be found in Journal of Dermatological Treatment 2014, 25, 232-236, incorporated by reference herein. Briefly, flaking severity of a subject is assessed by examination of the scalp which is illuminated by lighting that mimics daylight conditions. The scalp is divided into eight sections and each section is assessed for the presence of dandruff flakes that are adhering to the scalp skin using a 0 to 10 (increment of 2 units) scale. Loose flakes in the hair are not considered in the grading. The final, or total, ASFS is the sum of the grades for all eight scalp sections, which results in a scale ranging from 0 to 80 units. The change in flaking across time is reported as change from baseline at the 3-week time point.

[4] = 0.1% leave-on daily, Week 3, scalp tape strips

Compound: CO/C=C(/C(=O)OC)c1ccccc1Oc1cc(Oc2ccccc2C#N)ncn1 [Azoxystrobin]
- Keratins-1,10 % Change from Baseline [1, 4]: +86.0* %
- increase in keratins 1 and 10 ([1]; compared to a placebo control): 86%
- Myeloperoxidase Results % Change from Baseline [2, 4]: 63.7* %
- reduction in myeloperoxidase ([2]; compared to a placebo control): 64%
- Flaking Results (ASFS Change from Baseline) ([3]; 0.1% (w/v) hydroalcoholic leave-on, daily, 3 weeks, dandruff subjects, scale 0 to 80): −13.88
- reduction in flaking ([3]; after 3 weeks of treatment): 45%
- ASFS reduction more than the placebo ([3]; after 3 weeks of treatment, p=0.002): 4.7 units
